Laboratory results published in ChEMBL document CHEMBL5620382, “Fluoroindole chalcone analogues targeting the colchicine binding site of tubulin for colorectal oncotherapy” (Eur J Med Chem, 2023).
Activity calls are given as the source filed them. No cut-off for these calls is given here.

How the values were obtained:
HCT-116 [1] = experiment: Induction of mitochondrial damage in human HCT-116 cells at 10 to 20 nM measured after 24 hrs by transmission electron microscope (TEM) analysis; format: functional, cell-based; conditions: dose 10-20 nM
CT26 [2] = experiment: Antiproliferative activity against mouse CT26 cells assessed as inhibition of proliferation measured after 24 hrs by CCK-8 assay; format: functional, cell-based; conditions: CT26, 24 h
HCT-116 [3] = experiment: Anti-tumor activity against human HCT-116 cells xenografted in BALB/c mouse assessed as apoptosis in tumor section at 3 mg/kg, ip thrice a week for three weeks by TUNEL staining based assay; format: functional, organism-based; conditions: time 3.0 weeks
Tubulin (Homo sapiens) [4] = molecular target: T1, Tubulin (Homo sapiens) (UniProt P68371+Q9H4B7+P0DPH7+P68366+Q13509+Q71U36+P04350+Q3ZCM7+P07437+P68363+Q9BQE3+Q6PEY2+Q13885+Q9BVA1+Q9BUF5); experiment: Induction of microtubule stabilization in human HCT-116 cells at […] using 1:300 ratio of cell lysate/pronase incubated for 2 hrs by drug affinity reactive target stabilization (DARTS) assay; format: subcellular
[5] = Toxicity in C57B/6-APCmin/+ mouse model assessed as organ toxicity at 3 mg/kg, ip treated for 45 days by H and E staining; format: organism-based; conditions: in vivo, 1080 h, time 45 day
HCT-116 [6] = experiment: Induction of endoplasmic reticulum (ER) stress in human HCT-116 cells assessed as increase p-eIF2alpha expression at 10 to 20 nM measured after 24 hrs by Western blot analysis; format: functional, cell-based; conditions: dose 10-20 nM
CT26 [7] = experiment: Induction of endoplasmic reticulum (ER) stress in mouse CT26 cells assessed as increase in ROS level at 2.5 nM measured after 24 hrs by fluorescent analysis (reference value: 14%); format: functional
HCT-116 [8] = experiment: Induction of endoplasmic reticulum (ER) stress in human HCT-116 cells assessed as rough long-linear and irregularly dilated with locally verified expansion at 10 to 20 nM measured after 24 hrs by transmission electron microscope (TEM) analysis; format: functional, cell-based; conditions: dose 10-20 nM
HCT-116 [9] = experiment: Induction of endoplasmic reticulum (ER) stress in human HCT-116 cells assessed as increase p-IRE1alpha expression at 10 to 20 nM measured after 24 hrs by Western blot analysis; format: functional, cell-based; conditions: dose 10-20 nM
Colon cancer organoid = experiment: Antitumor activity against patient-derived Colorectal cancer organoid model assessed as inhibition of organoid growth by immunofluorescence assay; format: functional, tissue-based; conditions: Homo sapiens
HCT-116 [10] = experiment: Induction of mitochondrial dysfunction in human HCT-116 cells assessed as reduction in oxygen consumption rate (OCR) incubated for 24 hrs; format: functional, cell-based; conditions: dose 1.25-20 µM
HCT-116 [11] = experiment: Induction of mitochondrial dysfunction in human HCT-116 cells assessed as change in mitochondrial membrane potential (MMP) by JC-1 fluorescence assay; format: functional, cell-based; conditions: dose 1.25-20 µM
CT26 [12] = experiment: Antiproliferative activity against mouse CT26 cells assessed as dead cells at 2.5 to 40 nM measured after 24 hrs by Calcein-AM/PI staining based immunofluorescence analysis; format: functional, cell-based; conditions: dose 2.5-40 nM
CT26 [13] = experiment: Induction of mitochondrial damage in mouse CT26 cells at 10 to 40 nM measured after 24 hrs by transmission electron microscope (TEM) analysis; format: functional, cell-based; conditions: dose 10-40 nM
[14] = Toxicity in BALB/c mouse xenografted with human HCT-116 cells assessed as organ toxicity at 3 mg/kg, ip thrice a week for three weeks by […]; format: organism-based; conditions: in vivo, 504 h, time 3 weeks
HCT-116 [15] = experiment: Induction of endoplasmic reticulum (ER) stress in human HCT-116 cells assessed as increase in ROS level at 10 nM measured after 24 hrs by fluorescent analysis (reference value: 12%); format: functional
Homo sapiens = organism: Homo sapiens; experiment: Binding affinity to tubulin mutant (unknown origin) by MST analysis
CT26 [16] = experiment: Induction of endoplasmic reticulum (ER) stress in mouse CT26 cells assessed as increase in ROS level at 10 nM measured after 24 hrs by fluorescent analysis (reference value: 14%); format: functional
HCT-116 [17] = experiment: Anti-tumor activity against human HCT116 cells xenografted in BALB/c mouse assessed as inhibition of tumor growth at 1.5 to 3 mg/kg, ip thrice a week for three weeks; format: functional, organism-based; conditions: dose 1.5-3 mg/kg, time 3.0 weeks
CT26 [18] = experiment: Induction of endoplasmic reticulum (ER) stress in mouse CT26 cells assessed as increase in ROS level at 10 to 40 nM measured after 24 hrs by DCFH-DA analysis; format: functional, cell-based; conditions: dose 10-40 nM
CT26 [19] = experiment: Induction of endoplasmic reticulum (ER) stress in mouse CT26 cells assessed as increase p-IRE1alpha expression at 10 to 40 nM measured after 24 hrs by Western blot analysis; format: functional, cell-based; conditions: dose 10-40 nM
HCT-116 [20] = experiment: Cytotoxicity against human HCT-116 cells assessed as growth inhibition measured after 48 hrs by CCK-8 assay; format: functional
HCT-116 [21] = experiment: Induction of endoplasmic reticulum (ER) stress in human HCT-116 cells assessed as increase p-PERK expression at 10 to 20 nM measured after 24 hrs by Western blot analysis; format: functional, cell-based; conditions: dose 10-20 nM
CT26 [22] = experiment: Induction of cell cycle arrest in mouse CT26 cells […] assessed as accumulation of cells at G2/M phase at 2.5 to 10 nM by flow cytometry analysis; format: functional, cell-based; conditions: dose 2.5-10 nM
Tubulin (Homo sapiens) [23] = molecular target: T1, Tubulin (Homo sapiens); experiment: Stabilization of microtubule in human HCT-116 cells at […] incubated for 1 hrs by CETSA; format: cell-based
HCT-116 [24] = experiment: Antiproliferative activity against human HCT116 cells assessed as inhibition of proliferation measured after 24 hrs by CCK-8 assay; format: functional, cell-based; conditions: HCT-116, 24 h
[25] = Toxicity in BALB/c mouse xenografted with human HCT116 cells assessed as change in body weight at 1.5 to 3 mg/kg, ip thrice a week for three weeks; format: organism-based, HCT-116; conditions: in vivo, 504 h, dose 1.5-3 mg/kg, time 3 weeks
CT26 [26] = experiment: Disruption of microtubule assembly in mouse CT26 cells assessed as reduced/disorganized microtubule network measured after 24 hrs by high-resolution microscopy; format: functional, cell-based
CT26 [27] = experiment: Induction of endoplasmic reticulum (ER) stress in mouse CT26 cells assessed as increase p-eIF2alpha expression at 10 to 40 nM measured after 24 hrs by Western blot analysis; format: functional, cell-based; conditions: dose 10-40 nM

COc1cc(C(=O)/C(C)=C/c2c[nH]c3cc(F)ccc23)cc(OC)c1OC
Activity (HCT-116 [1]): Active
IC50 (CT26 [2]): 18.7 nM
Activity (HCT-116 [3]): Active
Activity (Tubulin (Homo sapiens) [4]): Active
Activity [5]: Non-Toxic
Activity (HCT-116 [6]): Active
Activity (CT26 [7]): 14.5%
Activity (HCT-116 [8]): Active
Activity (HCT-116 [9]): Active
IC50 (Colon cancer organoid): 2.06 nM
Activity (HCT-116 [10]): Dose-Dependent Effect
Activity (HCT-116 [11]): Dose-Dependent Effect
Activity (CT26 [12]): Active
Activity (CT26 [13]): Active
Activity [14]: Non-Toxic
Activity (HCT-116 [15]): 73.8%
Activity (Homo sapiens): inactive
Activity (CT26 [16]): 24.4%
Activity (HCT-116 [17]): Active
Activity (CT26 [18]): Active
Activity (CT26 [19]): Active
GI50 (HCT-116 [20]): 79 nM
Activity (HCT-116 [21]): Active
Activity (CT26 [22]): Active
Activity (Tubulin (Homo sapiens) [23]): inactive
IC50 (HCT-116 [24]): 4.52 nM
Activity [25]: Non-Toxic
Activity (CT26 [26]): Active
Activity (CT26 [27]): Active
